# Source: patent US5300672A (priority 1992, dated 1994)
# Like-named read-outs stand apart in the source and are kept apart here.
# Key:
# [1] = test system: Pseudoperonospora cubensis; test: whole plant or invertebrate; assay type: in vivo; settings: for pest or weed control at 50 ppm / pest or weed control at 200 ppm: Pseudoperonospora cubensis, in Cucumis sativus, 168 h, read-out: % Control CDM
# [2] = test system: Piricularia oryzae; test: whole plant or invertebrate; assay type: in vivo; settings: for pest or weed control at 100 ppm: read-out: % Control RB, application rate 100 ppm
# [3] = test system: Puccinia graminis (f. sp. tritici Race 15B-2); test: whole plant or invertebrate; assay type: in vivo; settings: Puccinia graminis, 336 h, read-out: % Control WSR
# [4] = test system: Erysiphe graminis (f. sp. tritici); test: whole plant or invertebrate; assay type: in vivo; settings: for pest or weed control at 100 ppm / pest or weed control at 200 ppm / pest or weed control at 50 ppm / pest or weed control at 12 ppm: Blumeria graminis, read-out: % Control WPM
# [5] = test system: Phytophthora infestans; test: whole plant or invertebrate; assay type: in vivo; settings: for pest or weed control at 100 ppm / pest or weed control at 200 ppm: Phytophthora infestans, in Solanum lycopersicum, 96 h
# [6] = test system: Puccinia recondita (f. sp. tritici Races PKB and PLD); test: whole plant or invertebrate; assay type: in vivo
# [7] = test system: Pellicularia filamentosa (f. sp. sasiki); test: whole plant or invertebrate; assay type: in vivo; settings: for pest or weed control at 100 ppm / pest or weed control at 200 ppm: 120 h, read-out: % Control RSB; for % Control RSB: in vivo
# [8] = test system: Pseudomonas fluorescens; test: Alternate Minimum Inhibitory Concentrations Test (Table 4), Ps.fl; assay type: cell-based; settings: Table 4 alternate test, 250 ppm to 0.8 ppm in TSB, 72 hours, 30° C.; for MIC: Pseudomonas fluorescens, read-out: MIC Ps.fl
# Description: The compounds of Examples 1-8, 12-26, 28-33, 36-37, 39-42, 44-109, 111-114, and 116-120 were subjected also to the following alternate biocidal activity test procedures with the results as indicated in Table 4.
# The MIC test measures the viability of Pseudomonas fluorescens inoculum in TSB when exposed for 72 hours to varying concentrations of test compound.
# A 125 μl aliquot of 10,000 ppm test compound in acetone was added to 4.88 ml of TSB to provide a 250 ppm solution. From this solution, 100 μL was transferred to the first row of two microtiter plate columns. Both replicates and five additional compounds were all serially diluted 1:1 to a final concentration of 0.8 ppm in TSB.
# Inoculation was accomplished by diluting a 24 hr Ps fl culture, four mls per 36 mls of phosphate buffer solution. A Dynatech autoinoculator was used to transfer 1.5 μl of this cell suspension to the microtiter plates. The plates were incubated at 30° C. for 3 days before the lowest concentration at which no growth occurs was recorded in the database.
# [9] = Puccinia recondita, 240 h, read-out: % Control WLR
# [10] = Pyricularia oryzae, read-out: % Control RB, application rate 200 ppm
# [11] = Pyricularia oryzae, read-out: % Control RB
Compound,pest or weed control at 50 ppm [1],pest or weed control at 200 ppm [3],pest or weed control at 100 ppm ([5]; read-out: % Control TLB),MIC [8],"pest or weed control at 200 ppm [2, 10]",pest or weed control at 200 ppm [1],pest or weed control at 200 ppm [4],pest or weed control at 200 ppm ([5]; read-out: % Control TLB),"pest or weed control at 200 ppm [6, 9]",pest or weed control at 200 ppm [7],also measured
"CCCCCCCCNC(=O)/C=C\SC(=O)c1ccc(F)cc1 [Compound 3, N-octyl-cis-3-[(4-fluorobenzoyl)thio]acrylamide]",85%,75%,90%,> 250 µg/mL,,,,,,,"pest or weed control at 100 ppm ([2]; Pyricularia oryzae): 80%; pest or weed control at 100 ppm [4]: 0%; pest or weed control at 100 ppm [6, 9]: 0%; pest or weed control at 100 ppm [7]: 0%"
"CCCCCCCCNC(=O)/C=C\SC(=O)C1CCCCC1 [Compound 4, N-octyl-cis-3-(cyclohexanecarbonylthio)acrylamide]",99%,50%,90%,> 250 µg/mL,,,,,,,"pest or weed control at 100 ppm ([2]; Pyricularia oryzae): 80%; pest or weed control at 100 ppm [4]: 0%; pest or weed control at 100 ppm [6, 9]: 0%; pest or weed control at 100 ppm [7]: 0%"
"CCCCCCCCNC(=O)/C=C\SC(=O)c1ccccc1Br [Compound 5, N-octyl-cis-3-[(2-bromobenzoyl)thio]acrylamide]",50%,75%,90%,> 250 µg/mL,,,,,,,"pest or weed control at 25 ppm ([2]; Pyricularia oryzae, read-out: % Control RB, application rate 25 ppm): 80%; pest or weed control at 100 ppm [4]: 0%; pest or weed control at 100 ppm [6, 9]: 0%; pest or weed control at 100 ppm [7]: 0%"
"CCCCCCCCNC(=O)/C=C\SC(=O)c1cccnc1Cl [Compound 6, N-octyl-cis-3-[3-(2-chloropyridine)carbonylthio]acrylamide]",85%,90%,90%,> 250 µg/mL,,,,,,,"pest or weed control at 100 ppm ([2]; Pyricularia oryzae): 50%; pest or weed control at 100 ppm [4]: 0%; pest or weed control at 100 ppm [6, 9]: 0%; pest or weed control at 100 ppm [7]: 0%"
"CCCCCCCCNC(=O)/C=C\SC(=O)c1ccc([N+](=O)[O-])cc1 [Compound 46, N-octyl-cis-3-[(4-nitrobenzoyl)thio]acrylamide]",99%,100%,,> 250 µg/mL,75%,,,,,,"pest or weed control at 100 ppm [4]: 0%; pest or weed control at 100 ppm ([5]; read-out: % Control TLB, application rate 100 ppm): 95%; pest or weed control at 25 ppm [6, 9]: 80%"
"CCCCCCCCNC(=O)/C=C\SC(=O)C1CC1 [Compound 49, N-octyl-cis-3-(cyclopropanecarbonylthio)acrylamide]",99%,75%,80%,> 250 µg/mL,,,,,,,"pest or weed control at 12 ppm ([2]; Pyricularia oryzae, read-out: % Control RB, application rate 12 ppm): 50%"
"CCCCCCCCNC(=O)/C=C\SC(=O)c1sccc1C [Compound 50, N-octyl-cis-3-[(3-methyl-2-thiophene)carbonylthio]acrylamide]",85%,75%,80%,> 250 µg/mL,0%,,,,,,
"CCCCCCCCNC(=O)/C=C\SC(=O)c1c[nH]c2ccccc12 [Compound 77, N-octyl-cis-3-[(3-indole)carbonylthio]acrylamide]",,,,> 250 µg/mL,90%,85%,0%,90%,80%,0%,
"C=CCCC(=O)S/C=C\C(=O)NCCCCCCCC [Compound 83, N-octyl-cis-3-[(4-pentenoyl)thio]acrylamide]",,,,> 250 µg/mL,50%,95%,0%,90%,50%,0%,
"CC/C=C/C(=O)S/C=C\C(=O)NCCCCCCCC [Compound 84, N-octyl-cis-3-[(trans-2-pentenoyl)thio]acrylamide]",,,,> 250 µg/mL,0%,0%,0%,90%,50%,0%,
"CCCCCCCCNC(=O)/C=C\SC(=O)CCCC(=O)OC [Compound 85, N-octyl-cis-3-[(4-methoxycarbonylbutanoyl)thio]acrylamide]",,,,> 250 µg/mL,90%,70%,0%,90%,80%,0%,
"CCCCCCCCNC(=O)/C=C\SC(=O)CC=Cc1ccccc1 [Compound 88, N-octyl-cis-3-[(4-phenylbut-3-enoyl)thio]acrylamide]",,,,> 250 µg/mL,90%,70%,0%,90%,,,"pest or weed control at 100 ppm [3]: 0%; pest or weed control at 50 ppm [6, 9]: 80%"
"CC(=O)S/C=C\C(=O)NC1CCCCCCCCCCC1 [Compound 90, N-cyclododecyl-cis-3-(acetylthio)acrylamide]",,,,> 250 µg/mL,0%,85%,,,0%,0%,"pest or weed control at 50 ppm [4]: 0%; pest or weed control at 200 ppm ([5]; read-out: % Control TLB, application rate 200 ppm): 0%"
"CCCCCCCCNC(=O)/C=C\SC(=O)CCc1ccccc1 [Compound 91, N-octyl-cis-3-[(3-phenylpropanoyl)thio]acrylamide]",,,,,,70%,,80%,25%,,"pest or weed control at 200 ppm [2, 11]: 70%; pest or weed control at 12 ppm [4]: 85%; % Control RSB [7]: 0 % Control; MIC Ps.fl [8]: > 250 Ppm"
"CCCCC/C=C/C(=O)S/C=C\C(=O)NCCCCCCCC [Compound 92, N-octyl-cis-3-[(trans-2-octenoyl)thio]acrylamide]",,,,> 250 µg/mL,,85%,,90%,,0%,"pest or weed control at 200 ppm [2, 11]: 70%; pest or weed control at 50 ppm [4]: 50%; pest or weed control at 50 ppm [6, 9]: 50%"
"CCCCCCCCNC(=O)/C=C\SC(=O)CC1CCCCC1 [Compound 94, N-octyl-cis-3-(cyclohexaneacetylthio)acrylamide]",,,,> 250 µg/mL,90%,70%,85%,80%,50%,0%,
"CCCCCCCCNC(=O)/C=C\SC(=O)c1ccnc2ccccc12 [Compound 95, N-octyl-cis-3-[(4-quinoline)carbonylthio]acrylamide]",,,,> 250 µg/mL,,95%,0%,80%,50%,0%,"pest or weed control at 50 ppm [2, 11]: 70%"
"CCCCCCCCNC(=O)/C=C\SC(=O)c1cc([N+](=O)[O-])cc([N+](=O)[O-])c1 [Compound 97, N-octyl-cis-3-[(3,5-dinitrobenzoyl)thio]acrylamide]",0%,,,> 250 µg/mL,,,,80%,0%,0%,"pest or weed control at 200 ppm [2, 11]: 70%; pest or weed control at 12 ppm [4]: 50%"
"CCCCCCCCNC(=O)/C=C\SC(=O)c1ccc([N+](=O)[O-])c([N+](=O)[O-])c1 [Compound 112, N-octyl-cis-3-[(3,4-dinitrobenzoyl)thio]acrylamide]",,,90%,> 250 µg/mL,0%,99%,0%,,50%,,pest or weed control at 100 ppm [3]: 50%
CC(C)(C)CC(C)(C)NC(=O)/C=C\SC(=O)c1ccccc1 [Compound 114],,,,> 250 µg/mL,0%,95%,0%,90%,0%,,pest or weed control at 100 ppm [3]: 50%
N-octyl-cis-3-(ferrocenecarbonylthio)acrylamide [Compound 81],,,,,,,,,,,% Control CDM ([1]; in vivo): 0 % Control; % Control RB ([2]; in vivo): 75 % Control; % Control WPM ([4]; in vivo): 85 % Control; % Control TLB ([5]; in vivo): 100 % Control; % Control WLR ([6]; in vivo): 25 % Control; % Control RSB [7]: 0 % Control; MIC Ps.fl [8]: > 250 Ppm
